# Experimental data as given in patent publication US20080152640A1, “Means and Methods For Treating a Disease Which is Associated With an Excess Transport of Hyaluronan Across a Lipid Bilayer” (priority 2003, published 2008).
# Where two headings read alike, the source gives them in different places.
# Key:
# human skin fibroblasts = test: Proliferation of human skin fibroblasts (cell counting); assay type: cell-based; settings: Homo sapiens, Skin fibroblast, read-out: Proliferation (IC50)
# Method: Human fibroblasts were grown in […] in Dulbecco's modified Eagles medium supplemented with streptomycin/penicillin (100 units of each/ml), kanamycin (100 units/ml) and 10% foetal calf serum. Cell proliferation was determined by cell counting after trypsinisation three days after seeding.
# MRP transporters [1] = target: MRP transporters (Homo sapiens, UniProt P33527); settings: read-out: IC50 for MRP transporter; cited from earlier work
# MRP transporters [2] = tested on: T1, MRP transporters; settings: human erythrocytes; cited from earlier work
# T1 construct: other: human erythrocytes
# MDR1 = MDR1 (Homo sapiens, UniProt P08183); settings: cited from earlier work
# MRP1 = MRP1 (Homo sapiens, UniProt P33527); settings: read-out: published inhibitory concentrations IC50 or Ki, MRP1; cited from earlier work
# MRP4 = target: T2, MRP4 (Homo sapiens, UniProt O15439); settings: cited from earlier work
# T2 sequence (O15439 1-1325): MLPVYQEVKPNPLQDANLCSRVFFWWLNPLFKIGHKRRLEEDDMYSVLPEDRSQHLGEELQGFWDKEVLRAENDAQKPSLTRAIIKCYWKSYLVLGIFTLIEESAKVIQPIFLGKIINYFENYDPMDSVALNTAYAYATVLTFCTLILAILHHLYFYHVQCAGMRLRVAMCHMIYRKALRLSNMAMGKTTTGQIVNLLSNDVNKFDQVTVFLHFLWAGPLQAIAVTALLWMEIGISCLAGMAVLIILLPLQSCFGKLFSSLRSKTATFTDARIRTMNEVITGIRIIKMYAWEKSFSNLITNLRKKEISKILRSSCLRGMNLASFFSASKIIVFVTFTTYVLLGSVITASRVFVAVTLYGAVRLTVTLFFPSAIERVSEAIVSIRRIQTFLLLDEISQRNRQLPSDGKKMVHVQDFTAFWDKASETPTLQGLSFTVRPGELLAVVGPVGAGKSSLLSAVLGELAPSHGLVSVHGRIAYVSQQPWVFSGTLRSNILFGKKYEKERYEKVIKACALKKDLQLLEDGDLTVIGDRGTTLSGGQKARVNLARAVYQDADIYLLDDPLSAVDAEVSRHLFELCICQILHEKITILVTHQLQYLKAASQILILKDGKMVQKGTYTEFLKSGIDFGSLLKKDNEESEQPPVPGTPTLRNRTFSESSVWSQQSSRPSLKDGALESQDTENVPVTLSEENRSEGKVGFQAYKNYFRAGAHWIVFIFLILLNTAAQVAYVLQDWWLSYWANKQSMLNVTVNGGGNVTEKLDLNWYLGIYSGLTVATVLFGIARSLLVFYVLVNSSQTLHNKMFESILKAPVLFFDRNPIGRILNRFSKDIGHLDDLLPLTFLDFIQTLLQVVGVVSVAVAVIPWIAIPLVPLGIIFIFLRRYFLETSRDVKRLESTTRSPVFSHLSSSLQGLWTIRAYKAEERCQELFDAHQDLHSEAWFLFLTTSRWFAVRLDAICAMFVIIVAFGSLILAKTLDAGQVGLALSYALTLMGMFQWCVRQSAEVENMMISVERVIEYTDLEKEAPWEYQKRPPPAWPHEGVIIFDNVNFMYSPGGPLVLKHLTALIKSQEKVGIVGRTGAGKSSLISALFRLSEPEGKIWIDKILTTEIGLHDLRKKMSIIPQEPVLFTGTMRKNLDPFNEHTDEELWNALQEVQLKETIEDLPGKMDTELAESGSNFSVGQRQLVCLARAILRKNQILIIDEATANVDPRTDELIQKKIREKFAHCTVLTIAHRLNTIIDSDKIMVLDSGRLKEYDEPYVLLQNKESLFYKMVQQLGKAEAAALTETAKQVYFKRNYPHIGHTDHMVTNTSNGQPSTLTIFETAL
# hyaluronan transport = test: Inhibition of hyaluronan transport (export) from human fibroblasts, discussion of Example 9; settings: human fibroblasts
# Method: Cells from five culture flasks (180 cm2 growth area) were washed with cold phosphate buffered saline (PBS), harvested with the aid of a rubber policeman, sedimented at 1500 g for 5 min and suspended in 30 ml of ice-cold PBS. The cells were transferred into a Parr-cell disruption bomb, exposed to a nitrogen pressure of 900 psi for 15 min and disrupted by nitrogen cavitation [18] and the particulate fraction was obtained by centrifugation at 40000 g for 20 min. […] Hyaluronan synthesis was stopped by adding a solution of 10% sodium dodecylsuifate (SDS) to a final concentration of 1%. The mixtures were applied to descending paper chromatography that was developed with ethanol/aq. 1 M ammonium acetate pH 5.5 (13:7) as solvent. After 18 h the radioactivity of [14C]hyaluronan at the origin was determined.
# Trypsinised fibroblasts were suspended in Dulbecco's medium at 10^5 cells/ml and 100 μl aliquots were transferred to a 96 well microtiter plate. The first row received 200 μl of the suspension and 20 μl of the multidrug resistance inhibitors dissolved in DMSO at concentrations of 4 mM. A serial dilution to the inhibitors was established by transfer of 100 μl aliquots from the first row to the following rows. All experiments were performed in duplicates. […] The cells were incubated for 2 days at 37° C. and aliquots (5 and 20 μl) of the culture medium were used for measurement of the hyaluronan concentration in the cell culture medium by an ELISA [19]. […] The mixtures were transferred to the hyaluronan-coated test plate and incubated for 1 hour at 37° C. The microtiter plate was washed three times with buffer A and incubated with 100 μl/well of a solution of streptavidin-horseraddish-peroxidase (Amersham) at a dilution of 1:100 in phosphate buffered saline, 0.1% Tween-20 for 30 min at room temperature. The plate was washed five times with buffer A and the colour was developed by incubation with a 100 μl/well of a solution of 5 mg o-phenylenediamine and 5 μl 30% H2O2 in 10 ml of 0.1 M citrate-phosphate buffer pH 5.3 for 25 min at room temperature. The adsorption was read at 490 nm. The concentrations in the samples were calculated from a logarithmic regression curve of the hyaluronan standard solutions.
# Three parameters were measured: 1. The amount of hyaluronan produced during growth into the culture supernatant. 2. The hyaluronan synthase activity in particulate membrane fractions to eliminate the possibility that inhibition of hyaluronan production in cell culture could be caused indirectly by cellular mediators. 3. The effect on cell proliferation, because hyaluronan synthesis is also required for detachment during mitosis and growth of the human HT1080 cell line [14].
# Chain of MDR1 (P08183 whole entry): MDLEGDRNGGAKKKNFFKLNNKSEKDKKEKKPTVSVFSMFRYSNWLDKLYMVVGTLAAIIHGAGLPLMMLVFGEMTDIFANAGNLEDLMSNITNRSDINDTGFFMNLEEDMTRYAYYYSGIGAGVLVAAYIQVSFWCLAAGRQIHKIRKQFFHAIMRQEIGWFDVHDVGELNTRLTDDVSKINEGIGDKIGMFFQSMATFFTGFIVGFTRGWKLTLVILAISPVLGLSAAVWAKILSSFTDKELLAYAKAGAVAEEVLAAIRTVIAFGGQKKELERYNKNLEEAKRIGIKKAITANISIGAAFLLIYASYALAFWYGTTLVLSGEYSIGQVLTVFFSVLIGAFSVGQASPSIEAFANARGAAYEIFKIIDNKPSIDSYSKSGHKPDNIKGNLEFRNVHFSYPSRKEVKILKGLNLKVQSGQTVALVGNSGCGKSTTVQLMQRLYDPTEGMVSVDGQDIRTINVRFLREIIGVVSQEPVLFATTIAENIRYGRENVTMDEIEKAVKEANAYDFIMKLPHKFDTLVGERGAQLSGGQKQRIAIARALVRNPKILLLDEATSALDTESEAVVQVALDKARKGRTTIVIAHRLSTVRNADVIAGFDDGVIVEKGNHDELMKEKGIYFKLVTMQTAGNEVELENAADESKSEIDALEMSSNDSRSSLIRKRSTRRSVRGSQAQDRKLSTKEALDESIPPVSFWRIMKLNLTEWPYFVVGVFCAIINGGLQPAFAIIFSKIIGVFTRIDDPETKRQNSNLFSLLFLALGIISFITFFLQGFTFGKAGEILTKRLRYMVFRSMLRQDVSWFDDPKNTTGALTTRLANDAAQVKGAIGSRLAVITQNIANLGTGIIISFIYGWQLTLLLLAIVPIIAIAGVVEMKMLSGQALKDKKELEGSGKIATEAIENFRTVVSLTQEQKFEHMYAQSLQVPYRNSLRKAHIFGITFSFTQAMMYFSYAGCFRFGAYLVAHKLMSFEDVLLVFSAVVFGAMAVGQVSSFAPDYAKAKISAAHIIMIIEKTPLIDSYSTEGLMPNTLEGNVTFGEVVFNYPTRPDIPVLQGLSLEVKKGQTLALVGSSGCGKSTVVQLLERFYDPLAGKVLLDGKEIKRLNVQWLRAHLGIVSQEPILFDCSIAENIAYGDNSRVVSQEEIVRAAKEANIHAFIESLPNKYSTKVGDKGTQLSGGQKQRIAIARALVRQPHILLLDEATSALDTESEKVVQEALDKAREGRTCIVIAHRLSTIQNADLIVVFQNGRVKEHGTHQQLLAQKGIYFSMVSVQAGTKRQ
# Chain of MRP1 (P33527 whole entry): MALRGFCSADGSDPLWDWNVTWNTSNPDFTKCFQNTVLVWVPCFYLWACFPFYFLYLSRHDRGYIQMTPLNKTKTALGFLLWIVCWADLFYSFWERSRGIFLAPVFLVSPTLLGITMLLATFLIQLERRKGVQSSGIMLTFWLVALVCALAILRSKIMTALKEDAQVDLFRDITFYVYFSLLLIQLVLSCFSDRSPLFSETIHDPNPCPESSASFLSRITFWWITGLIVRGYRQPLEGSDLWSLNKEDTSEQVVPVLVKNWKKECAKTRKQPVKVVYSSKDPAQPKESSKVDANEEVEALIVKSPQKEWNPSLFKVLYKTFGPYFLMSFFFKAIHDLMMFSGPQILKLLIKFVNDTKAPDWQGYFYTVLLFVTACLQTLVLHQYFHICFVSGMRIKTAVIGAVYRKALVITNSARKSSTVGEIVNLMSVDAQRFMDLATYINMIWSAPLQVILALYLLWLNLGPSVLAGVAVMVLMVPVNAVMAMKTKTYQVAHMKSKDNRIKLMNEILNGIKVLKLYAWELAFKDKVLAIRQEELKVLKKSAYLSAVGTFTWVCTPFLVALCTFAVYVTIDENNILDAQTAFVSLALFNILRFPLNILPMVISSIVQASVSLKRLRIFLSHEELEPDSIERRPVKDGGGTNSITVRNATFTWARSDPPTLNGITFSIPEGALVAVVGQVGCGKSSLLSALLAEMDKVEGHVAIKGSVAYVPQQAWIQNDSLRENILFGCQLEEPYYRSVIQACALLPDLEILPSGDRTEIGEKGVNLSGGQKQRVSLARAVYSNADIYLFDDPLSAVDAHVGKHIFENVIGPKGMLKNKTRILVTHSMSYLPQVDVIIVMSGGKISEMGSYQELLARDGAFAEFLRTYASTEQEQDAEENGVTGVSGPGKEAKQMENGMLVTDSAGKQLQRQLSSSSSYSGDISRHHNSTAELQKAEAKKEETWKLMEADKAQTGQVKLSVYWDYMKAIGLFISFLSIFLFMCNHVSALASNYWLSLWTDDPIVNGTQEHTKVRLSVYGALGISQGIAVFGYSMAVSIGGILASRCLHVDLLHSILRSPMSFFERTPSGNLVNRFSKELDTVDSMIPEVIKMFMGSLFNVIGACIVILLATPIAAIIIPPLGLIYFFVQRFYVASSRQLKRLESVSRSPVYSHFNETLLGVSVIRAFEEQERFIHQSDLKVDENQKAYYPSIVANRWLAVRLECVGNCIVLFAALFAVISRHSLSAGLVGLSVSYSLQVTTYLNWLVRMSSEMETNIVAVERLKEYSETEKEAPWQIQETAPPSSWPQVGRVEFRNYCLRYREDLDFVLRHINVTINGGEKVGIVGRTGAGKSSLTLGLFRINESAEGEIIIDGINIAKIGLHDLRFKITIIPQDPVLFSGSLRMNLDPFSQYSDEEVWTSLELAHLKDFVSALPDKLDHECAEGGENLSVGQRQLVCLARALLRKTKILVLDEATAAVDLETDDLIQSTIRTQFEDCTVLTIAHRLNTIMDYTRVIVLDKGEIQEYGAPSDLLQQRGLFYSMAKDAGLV
# Chain of MRP transporters (Homo sapiens, UniProt P33527) (P33527 whole entry): as above
smiles,measurement,setting,value
CCCN(CCC)S(=O)(=O)c1ccc(C(=O)O)cc1 [Probenecid],IC50,human skin fibroblasts,200 µM
same,IC50,MRP transporters [1],500 to 800 µM
same,IC50,MRP transporters [2],100 to 200 µM
same,IC50,MDR1; read-out: IC50 for MDR1,> 2000 µM
same,IC50,"MDR1; read-out: published inhibitory concentrations IC50 or Ki, MDR1",> 2000 µM
same,IC50,MRP1,100 to 200 µM
same,IC50,"MRP4; read-out: IC50, 9-(2-phosphonomethoxyethyl)adenine (PMEA) transport by MRP4, substrate PMEA",2300 µM
same,IC50,"MRP4; read-out: IC50, MRP4 mediated export of methotrexate, substrate methotrexate",~300 µM
same,IC50,"MRP4; read-out: published inhibitory concentrations IC50 or Ki, MRP4",300 µM
same,inhibition of hyaluronan transport (words),hyaluronan transport,inhibited hyaluronan transport
